The source made the active and inactive calls. The rule behind the calls is not given here.

The subject of this data set is CCRIS mutagenicity, Ames/micronucleus/aberration tests. Kind of data set: CCRIS mutagenicity studies.

Consider `CN(C)c1ccc(Cc2ccc(N(C)C)cc2)cc1`, for which the mutagenic call reads like this: (Test System: AMES SALMONELLA TYPHIMURIUM, Strain/Indicator: TA98, Metabolic Activation: HAMSTER, LIVER, S-9, AROCLOR 1254, Method: STANDARD PLATE) “inactive; negative”; (Test System: AMES SALMONELLA TYPHIMURIUM, Strain/Indicator: TA98, Metabolic Activation: HAMSTER, LIVER, S-9, Method: STANDARD PLATE) “inactive; negative”; (Test System: AMES SALMONELLA TYPHIMURIUM, Strain/Indicator: TA98, Metabolic Activation: MOUSE, LIVER, S-9, Method: STANDARD PLATE) “inactive; negative”; (Test System: AMES SALMONELLA TYPHIMURIUM, Strain/Indicator: TA98, Metabolic Activation: NONE, Method: STANDARD PLATE) “inactive; negative”; (Test System: AMES SALMONELLA TYPHIMURIUM, Strain/Indicator: TA98, Metabolic Activation: RAT, LIVER, S-9, AROCLOR 1254, Method: STANDARD PLATE) “inactive; negative”; (Test System: AMES SALMONELLA TYPHIMURIUM, Strain/Indicator: TA98, Metabolic Activation: RAT, LIVER, S-9, Method: STANDARD PLATE) “inactive; negative”. In addition, the mutagenic call (Test System: AMES SALMONELLA TYPHIMURIUM, Strain/Indicator: TA100, Metabolic Activation: HAMSTER, LIVER, S-9, AROCLOR 1254, Method: STANDARD PLATE) is “inactive; negative”; the mutagenic call (Test System: AMES SALMONELLA TYPHIMURIUM, Strain/Indicator: TA100, Metabolic Activation: HAMSTER, LIVER, S-9, Method: STANDARD PLATE) was “inactive; negative”; the mutagenic call (Test System: AMES SALMONELLA TYPHIMURIUM, Strain/Indicator: TA100, Metabolic Activation: MOUSE, LIVER, S-9, Method: STANDARD PLATE) was “inactive; negative”; the mutagenic call (Test System: AMES SALMONELLA TYPHIMURIUM, Strain/Indicator: TA100, Metabolic Activation: NONE, Method: STANDARD PLATE) was “inactive; negative”; the mutagenic call (Test System: AMES SALMONELLA TYPHIMURIUM, Strain/Indicator: TA100, Metabolic Activation: RAT, LIVER, S-9, AROCLOR 1254, Method: STANDARD PLATE) is “inactive; negative”; the mutagenic call (Test System: AMES SALMONELLA TYPHIMURIUM, Strain/Indicator: TA100, Metabolic Activation: RAT, LIVER, S-9, Method: STANDARD PLATE) is “inactive; negative”. Also, the mutagenic call reads like this: (Test System: AMES SALMONELLA TYPHIMURIUM, Strain/Indicator: TA1535, Metabolic Activation: HAMSTER, LIVER, S-9, AROCLOR 1254, Method: STANDARD PLATE) “inactive; negative”; (Test System: AMES SALMONELLA TYPHIMURIUM, Strain/Indicator: TA1535, Metabolic Activation: HAMSTER, LIVER, S-9, Method: STANDARD PLATE) “inactive; negative”; (Test System: AMES SALMONELLA TYPHIMURIUM, Strain/Indicator: TA1535, Metabolic Activation: MOUSE, LIVER, S-9, AROCLOR 1254, Method: STANDARD PLATE) “inactive; negative”; (Test System: AMES SALMONELLA TYPHIMURIUM, Strain/Indicator: TA1535, Metabolic Activation: MOUSE, LIVER, S-9, Method: STANDARD PLATE) “inactive; negative”; (Test System: AMES SALMONELLA TYPHIMURIUM, Strain/Indicator: TA1535, Metabolic Activation: NONE, Method: STANDARD PLATE) “inactive; negative”; (Test System: AMES SALMONELLA TYPHIMURIUM, Strain/Indicator: TA1535, Metabolic Activation: RAT, LIVER, S-9, AROCLOR 1254, Method: STANDARD PLATE) “inactive; negative”. The mutagenic call (Test System: AMES SALMONELLA TYPHIMURIUM, Strain/Indicator: TA1535, Metabolic Activation: RAT, LIVER, S-9, Method: STANDARD PLATE) was “inactive; negative”; the mutagenic call (Test System: AMES SALMONELLA TYPHIMURIUM, Strain/Indicator: TA1537, Metabolic Activation: HAMSTER, LIVER, S-9, AROCLOR 1254, Method: STANDARD PLATE) was “inactive; negative”; the mutagenic call (Test System: AMES SALMONELLA TYPHIMURIUM, Strain/Indicator: TA1537, Metabolic Activation: HAMSTER, LIVER, S-9, Method: STANDARD PLATE) is “inactive; negative”; the mutagenic call (Test System: AMES SALMONELLA TYPHIMURIUM, Strain/Indicator: TA1537, Metabolic Activation: MOUSE, LIVER, S-9, AROCLOR 1254, Method: STANDARD PLATE) was “inactive; negative”; the mutagenic call (Test System: AMES SALMONELLA TYPHIMURIUM, Strain/Indicator: TA1537, Metabolic Activation: MOUSE, LIVER, S-9, Method: STANDARD PLATE) was “inactive; negative”; the mutagenic call (Test System: AMES SALMONELLA TYPHIMURIUM, Strain/Indicator: TA1537, Metabolic Activation: NONE, Method: STANDARD PLATE) is “inactive; negative”. Besides, the mutagenic call (Test System: AMES SALMONELLA TYPHIMURIUM, Strain/Indicator: TA1537, Metabolic Activation: RAT, LIVER, S-9, AROCLOR 1254, Method: STANDARD PLATE) was “inactive; negative”; the mutagenic call (Test System: AMES SALMONELLA TYPHIMURIUM, Strain/Indicator: TA1537, Metabolic Activation: RAT, LIVER, S-9, Method: STANDARD PLATE) is “inactive; negative”; the mutagenic call (Test System: AMES SALMONELLA TYPHIMURIUM, Strain/Indicator: TA1538, Metabolic Activation: HAMSTER, LIVER, S-9, Method: STANDARD PLATE) was “inactive; negative”; the mutagenic call (Test System: AMES SALMONELLA TYPHIMURIUM, Strain/Indicator: TA1538, Metabolic Activation: MOUSE, LIVER, S-9, AROCLOR 1254, Method: STANDARD PLATE) is “inactive; negative”; the mutagenic call (Test System: AMES SALMONELLA TYPHIMURIUM, Strain/Indicator: TA1538, Metabolic Activation: MOUSE, LIVER, S-9, Method: STANDARD PLATE) was “inactive; negative”; the mutagenic call (Test System: AMES SALMONELLA TYPHIMURIUM, Strain/Indicator: TA1538, Metabolic Activation: NONE, Method: STANDARD PLATE) was “inactive; negative”. In addition, the mutagenic call reads like this: (Test System: AMES SALMONELLA TYPHIMURIUM, Strain/Indicator: TA1538, Metabolic Activation: RAT, LIVER, S-9, AROCLOR 1254, Method: STANDARD PLATE) “inactive; negative”; (Test System: AMES SALMONELLA TYPHIMURIUM, Strain/Indicator: TA1538, Metabolic Activation: RAT, LIVER, S-9, Method: STANDARD PLATE) “inactive; negative”; (Test System: E. COLI, Strain/Indicator: WP2 UVRA, Metabolic Activation: HAMSTER, LIVER, S-9, AROCLOR 1254, Method: STANDARD PLATE) “inactive; negative”; (Test System: E. COLI, Strain/Indicator: WP2 UVRA, Metabolic Activation: HAMSTER, LIVER, S-9, Method: STANDARD PLATE) “inactive; negative”; (Test System: E. COLI, Strain/Indicator: WP2 UVRA, Metabolic Activation: MOUSE, LIVER, S-9, AROCLOR 1254, Method: STANDARD PLATE) “inactive; negative”; (Test System: E. COLI, Strain/Indicator: WP2 UVRA, Metabolic Activation: MOUSE, LIVER, S-9, Method: STANDARD PLATE) “inactive; negative”. Also, the mutagenic call was “inactive; negative” (Test System: E. COLI, Strain/Indicator: WP2 UVRA, Metabolic Activation: NONE, Method: STANDARD PLATE); “inactive; negative” (Test System: E. COLI, Strain/Indicator: WP2 UVRA, Metabolic Activation: RAT, LIVER, S-9, AROCLOR 1254, Method: STANDARD PLATE); “inactive; negative” (Test System: E. COLI, Strain/Indicator: WP2 UVRA, Metabolic Activation: RAT, LIVER, S-9, Method: STANDARD PLATE); “active; positive” (Test System: MOUSE LYMPHOMA, Strain/Indicator: L5178Y (TK+/TK-), Metabolic Activation: RAT, LIVER, S-9, AROCLOR 1254, Method: SUSPENSION/PLATE).
As to `CC(C)NCC(O)COc1cccc2[nH]ccc12` (stereo not drawn), the mutagenic call (Test System: AMES SALMONELLA TYPHIMURIUM, Strain/Indicator: TA98, Metabolic Activation: NONE) was “inactive; negative”; the mutagenic call (Test System: AMES SALMONELLA TYPHIMURIUM, Strain/Indicator: TA98, Metabolic Activation: RAT, LIVER, S-9, AROCLOR 1254) was “inactive; negative”; the mutagenic call (Test System: AMES SALMONELLA TYPHIMURIUM, Strain/Indicator: TA100, Metabolic Activation: NONE) was “inactive; negative”; the mutagenic call (Test System: AMES SALMONELLA TYPHIMURIUM, Strain/Indicator: TA100, Metabolic Activation: RAT, LIVER, S-9, AROCLOR 1254) was “inactive; negative”; the mutagenic call (Test System: AMES SALMONELLA TYPHIMURIUM, Strain/Indicator: TA1535, Metabolic Activation: NONE) was “inactive; negative”; the mutagenic call (Test System: AMES SALMONELLA TYPHIMURIUM, Strain/Indicator: TA1535, Metabolic Activation: RAT, LIVER, S-9, AROCLOR 1254) was “inactive; negative”. The mutagenic call (Test System: AMES SALMONELLA TYPHIMURIUM, Strain/Indicator: TA1537, Metabolic Activation: NONE) was “inactive; negative” and the mutagenic call (Test System: AMES SALMONELLA TYPHIMURIUM, Strain/Indicator: TA1537, Metabolic Activation: RAT, LIVER, S-9, AROCLOR 1254) was “inactive; negative”.

(Values after PubChem BioAssay AID1259407 (Chemical Carcinogenesis Research Information System (CCRIS), 2018).)
